Reference: patent US20060135432A1, “Agonists and antagonists of conadotropin-releasing hormone-2, and use thereof” (priority 2002, published 2006)
Where a SMILES comes first, the peptide text is derived from it. [ ]: non-standard residue; d: D form. dPhe(4-Cl) = N[C@H](Cc1ccc(Cl)cc1)C(=O)O; d2Nal = N[C@H](Cc1ccc2ccccc2c1)C(=O)O; dCit = NC(=O)NCCC[C@@H](N)C(=O)O; d3Pal = N[C@H](Cc1cccnc1)C(=O)O; pGlu = O=C1CC[C@@H](C(=O)O)N1

How the values were obtained:
bfGnRHR-1 = test: Inositol phosphate (IP) production in GH3 cells expressing bfGnRHR-1; format: cell-based, bullfrog
Description: The GnRH receptor, a membrane protein connected with the G protein, activates the G protein when activated by a ligand, and the activated G protein activates phospholipase C and thereby the synthesis of inositol phosphate (IP), which is the second transmitter in cells, is increased. Based on this principle, the activity of a receptor can be investigated by measuring the amount of IP within cells. GH3 cell lines were obtained from the Cell Line Bank at the Cancer Research Center, Seoul National University College of Medicine, located in Seoul, Republic of Korea. The GH3 cell lines were infected with retroviruses comprising genes encoding […]-2, and bfGnRHR-3 which are bullfrog GnRH receptors, and rat GnRHR, and cell lines expressing each of these receptors were obtained. The GH3 cells expressing […]-3, and rat GnRHR were cultured on 12-well plates. After 24 hours, the cells were cultured again for 24 hours in a media containing no inositol, to which H^3-myoinositol was added. […] Thereafter, they were treated with GnRH having a suitable concentration, cultured at 37° C. for another 30 minutes, and then the media was eliminated. […] These resins were washed with distilled water, IP was extracted with 1 M ammonium formate/0.1 M formic acid, and cpm (count per minute) was determined. […]

rat GnRHR [1] = molecular target: T1, rat GnRHR (Rattus norvegicus, UniProt P30969); test: I125-GnRH-2 competitive ligand-receptor binding, membranes of GH3 cells expressing rat GnRHR; settings: competition with I125-GnRH-2, 4 °C, 16 hours; read-out: Binding affinity (log IC50 value) (converted)
T1 construct: expressed in transfected cells; host or cells: GH3 cells, retroviral infection
T1 sequence (P30969 1-327): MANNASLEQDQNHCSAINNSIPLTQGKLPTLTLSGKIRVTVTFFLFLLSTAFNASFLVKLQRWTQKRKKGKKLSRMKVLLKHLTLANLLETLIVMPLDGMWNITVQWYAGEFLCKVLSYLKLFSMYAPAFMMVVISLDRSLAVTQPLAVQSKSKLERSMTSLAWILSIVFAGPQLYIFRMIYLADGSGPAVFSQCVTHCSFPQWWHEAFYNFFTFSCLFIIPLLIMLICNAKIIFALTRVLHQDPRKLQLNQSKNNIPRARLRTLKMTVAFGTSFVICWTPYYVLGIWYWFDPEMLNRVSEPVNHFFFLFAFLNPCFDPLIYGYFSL
Experimental: To determine the binding affinity between GnRH and GnRH receptors, GnRH-2 was radiolabeled with I^125. […] After 48 hours, the cells were homogenized to obtain cellular membranes, which were then dissolved in binding buffer (40 mM Tris, pH 7.4, 2 mM MgCl2). 20 μg of membrane proteins were reacted with I^125-GnRH-2 at 4° C. for 16 hours. […] After the reaction was completed, 1^125-GnRH-2 bound to the receptors was filtered using a Brandel harvester, and cpm was measured using a y-counter.

rat GnRHR [2] = molecular target: T1, rat GnRHR; test: Inositol phosphate (IP) production in GH3 cells expressing rat GnRHR; format: cell-based; settings: for EC50: GH3 cells, 30 min, given as log EC50 (negative values)
Description: The GnRH receptor, a membrane protein connected with the G protein, activates the G protein when activated by a ligand, and the activated G protein activates phospholipase C and thereby the synthesis of inositol phosphate (IP), which is the second transmitter in cells, is increased. Based on this principle, the activity of a receptor can be investigated by measuring the amount of IP within cells. GH3 cell lines were obtained from the Cell Line Bank at the Cancer Research Center, Seoul National University College of Medicine, located in Seoul, Republic of Korea. The GH3 cell lines were infected with retroviruses comprising genes encoding […]-2, and bfGnRHR-3 which are bullfrog GnRH receptors, and rat GnRHR, and cell lines expressing each of these receptors were obtained. The GH3 cells expressing […]-3, and rat GnRHR were cultured on 12-well plates. After 24 hours, the cells were cultured again for 24 hours in a media containing no inositol, to which H^3-myoinositol was added. […] Thereafter, they were treated with GnRH having a suitable concentration, cultured at 37° C. for another 30 minutes, and then the media was eliminated. The cells were treated with 10 mM of ice-cold formic acid to terminate the reaction, and the cell extracts were mixed with Dowex anionic exchange resins. These resins were washed with distilled water, IP was extracted with 1 M ammonium formate/0.1 M formic acid, and cpm (count per minute) was determined. The GH3 cell lines were infected with retroviruses comprising genes encoding […]-2, and bfGnRHR-3 which are bullfrog GnRH receptors, and rat GnRHR, and cell lines expressing each of these receptors were obtained.

Primate GnRH-2 receptor [3] = test: c-fos-luc luciferase activation in CV-1 cells expressing Primate GnRH-2 receptor; format: cell-based
Experimental: (§1) Complimentary DNA (cDNA) for a Primate GnRH-2 receptor was obtained from a CV-1 cell genome. […] Plasmids having Primate GnRH-2 receptors where transfected into CV-1 cells. To assay the activity of the receptor, c-fos-luc where a luciferase gene is fused with a c-fos promoter was co-transfected as a probe gene. After 48 hours from transfection, the cells were treated with GnRH-2 agonists and then the activity of luciferase was assayed (Seong et al., Endocrinology vol 144 2003, 454-466).
Of the GnRH-2 receptors, [D-Ala^6]GnRH-2 performed excellently, showing effects about 3 times that of a wild-type ligand, GnRH-2. […] When analogs where the 5th, 7th, and 8th amino acids of [D-Ala^6]GnRH-2 are substituted were used, it was observed that their effects were weaker than [D-Ala^6]GnRH-2, and therefore it can be seen that it is important to maintain His, Trp, and Tyr that are found at the 5th, 7th, and 8th positions of GnRH-2 as they are (FIG. 3b).

Primate GnRH-2 receptor [4] = test: Inhibition of GnRH-2-induced c-fos-luc luciferase activity in cells expressing Primate GnRH-2 receptor; format: cell-based; settings: treated at the same time as GnRH-2
Experimental: as §1
In the same manner as in 2-3 above, Primate GnRH-2 receptors were co-transfected along with c-fos-luc reporter genes, and after 48 hours, GnRH-2 and GnRH-2 antagonists were treated thereinto at the same time and then the effect of GnRH-2 antagonists was observed.

rat GnRHR [5] = molecular target: T1, rat GnRHR; test: Inhibition of GnRH-1-induced IP production in GH3 cells expressing rat GnRHR; format: cell-based
Experimental: GH3 cell lines were obtained from the Cell Line Bank at the Cancer Research Center, Seoul National University College of Medicine, located in Seoul, Republic of Korea. The GH3 cell lines were infected with retroviruses comprising genes encoding bfGnRHR-1, bfGnRHR-2, and bfGnRHR-3 which are bullfrog GnRH receptors, and rat GnRHR, and cell lines expressing each of these receptors were obtained. The GH3 cells expressing bfGnRHR-1, bfGnRHR-2, bfGnRHR-3, and rat GnRHR were cultured on 12-well plates. After 24 hours, the cells were cultured again for 24 hours in a media containing no inositol, to which H^3-myoinositol was added. The resultant cells were washed with buffer A (140 mM NaCl, 20 mM HEPES, 4 mM KCl, 8 mM D-Glucose, 1 mM MgCl2, 1 mM CaCl2, 1 mg/ml BSA) and then cultured in buffer A containing 10 mM LiCl at 37°C. for 30 minutes. Thereafter, they were treated with GnRH having a suitable concentration, cultured at 37° C. for another 30 minutes, and then the media was eliminated. The cells were treated with 10 mM of ice-cold formic acid to terminate the reaction, and the cell extracts were mixed with Dowex anionic exchange resins. These resins were washed with distilled water, IP was extracted with 1 M ammonium formate/0.1 M formic acid, and cpm (count per minute) was determined.
However, Trptorelix-1 could reduce the production of IP induced by 1 nM GnRH-2, in a concentration-dependent manner (FIG. 6a to FIG. 6c).

TSU-Pri cells = test: Binding of radiolabeled GnRH to TSU-Pri prostate cancer cells; design: species or system human; settings: room temperature, 6 hours
Experimental: TSU-Pri, which is one of the prostate cancer cell lines, was cultured along with the radiolabeled I^125GnRH-1 and I^125GnRH-2. […] The radiolabeled GnRH and the cells were cultured at room temperature for 6 hours, and then washed with PBS (phosphate-buffered saline) several times to eliminate the unbound GnRH. Thereafter, the cells were isolated and radioactivity from the cells was measured using a y-counter.

NC(=O)CNC(=O)[C@@H]1CCCN1C(=O)[C@H](Cc1ccc(O)cc1)NC(=O)[C@H](Cc1c[nH]c2ccccc12)NC(=O)[C@@H](Cc1c[nH]c2ccccc12)NC(=O)[C@H](Cc1c[nH]cn1)NC(=O)[C@H](CO)NC(=O)[C@H](Cc1c[nH]c2ccccc12)NC(=O)[C@H](Cc1c[nH]cn1)NC(=O)[C@@H]1CCC(=O)N1 [[D-Trp^6]GnRH-2, reference compound] ([pGlu]HWSH[dW]WYPG-NH2)
concentration activating bfGnRHR-1, fold lower than GnRH-2 (bfGnRHR-1): similar
IC50 (rat GnRHR [1]): 97.7 nM
EC50 (rat GnRHR [2]): 12 nM
effect reduced, fold, as compared with GnRH-2 (Primate GnRH-2 receptor [3]): ~1.2 fold

CC(=O)N[C@H](Cc1ccc2ccccc2c1)C(=O)N[C@H](Cc1ccc(Cl)cc1)C(=O)N[C@H](Cc1cccnc1)C(=O)N[C@@H](CO)C(=O)N[C@@H](Cc1ccc(O)cc1)C(=O)N[C@H](CCCNC(N)=O)C(=O)N[C@@H](CC(C)C)C(=O)N[C@@H](CCCNC(=N)N)C(=O)N1CCC[C@H]1C(=O)N[C@H](C)C(N)=O [Cetrorelix, Ac-D-2Nal-(4Cl)-D-Phe-D-3Pal-Ser-Tyr-D-Cit-Leu-Arg-Pro-D-Ala-NH2, reference compound] (Ac-[d2Nal][dPhe(4-Cl)][d3Pal]SY[dCit]LRP[dA]-NH2)
effect on luciferase activity induced by GnRH-2 (Primate GnRH-2 receptor [4]): no effect
IC50 (rat GnRHR [5]): 9.33 pM

Ac-D2Nal-(4Cl)D-Phe-D-3Pal-Ser-Tyr-DCit-Trp-Leu-Pro-DAla-NH2 (Ac-[d2Nal][dPhe(4-Cl)][d3Pal]SY[dCit]WLP[dA]-NH2; SMILES CC(=O)N[C@H](Cc1ccc2ccccc2c1)C(=O)N[C@H](Cc1ccc(Cl)cc1)C(=O)N[C@H](Cc1cccnc1)C(=O)N[C@@H](CO)C(=O)N[C@@H](Cc1ccc(O)cc1)C(=O)N[C@H](CCCNC(N)=O)C(=O)N[C@@H](Cc1c[nH]c2ccccc12)C(=O)N[C@@H](CC(C)C)C(=O)N1CCC[C@H]1C(=O)N[C@H](C)C(N)=O) [Trptorelix-3]
effect on luciferase activity induced by GnRH-2 (Primate GnRH-2 receptor [4]): no effect

[D-Ala^6]GnRH-1: the agonist of GnRH-1 [reference compound]
sensitivity as compared with GnRH-2 (Primate GnRH-2 receptor [3]): very low sensitivity

CC(=O)N[C@H](Cc1ccc2ccccc2c1)C(=O)N[C@H](Cc1ccc(Cl)cc1)C(=O)N[C@H](Cc1cccnc1)C(=O)N[C@@H](CO)C(=O)N[C@@H](Cc1c[nH]cn1)C(=O)N[C@H](CCCNC(N)=O)C(=O)N[C@@H](Cc1c[nH]c2ccccc12)C(=O)N[C@@H](Cc1ccc(O)cc1)C(=O)N1CCC[C@H]1C(=O)N[C@H](C)C(N)=O [Trptorelix-2, Ac-D2Nal-(4Cl)D-Phe-D-3Pal-Ser-His-DCit-Trp-Tyr-Pro-DAla-NH2] (Ac-[d2Nal][dPhe(4-Cl)][d3Pal]SH[dCit]WYP[dA]-NH2)
effect on luciferase activity induced by GnRH-2 (Primate GnRH-2 receptor [4]): reduced in a concentration-dependent manner

NC(=O)CNC(=O)[C@@H]1CCCN1C(=O)[C@H](Cc1ccc(O)cc1)NC(=O)[C@H](Cc1c[nH]c2ccccc12)NC(=O)CNC(=O)[C@H](Cc1c[nH]cn1)NC(=O)[C@H](CO)NC(=O)[C@H](Cc1c[nH]c2ccccc12)NC(=O)[C@H](Cc1c[nH]cn1)NC(=O)[C@@H]1CCC(=O)N1 [GnRH-2] ([pGlu]HWSHGWYPG-NH2)
IC50 (rat GnRHR [1]): 832 nM
binding of the radiolabeled ligand to TSU-Pri cells (TSU-Pri cells): binding with cells was observed
effect of unradiolabeled competitor on binding of radiolabeled GnRH-2 to TSU-Pri cells (TSU-Pri cells): the binding was reduced
EC50 (rat GnRHR [2]): 8.71 nM
sensitivity compared with GnRH-1 (rat GnRHR [2]; rat GnRHR): a sensitivity lower than 10-fold

p-Glu-His-Trp-Ser-His-D-Lys-Trp-Tyr-Pro-Gly-NH2 ([pGlu]HWSH[dK]WYPG-NH2; SMILES NCCCC[C@@H](NC(=O)[C@H](Cc1c[nH]cn1)NC(=O)[C@H](CO)NC(=O)[C@H](Cc1c[nH]c2ccccc12)NC(=O)[C@H](Cc1c[nH]cn1)NC(=O)[C@@H]1CCC(=O)N1)C(=O)N[C@@H](Cc1c[nH]c2ccccc12)C(=O)N[C@@H](Cc1ccc(O)cc1)C(=O)N1CCC[C@H]1C(=O)NCC(N)=O) [[D-Lys^6]GnRH-2]
effect reduced, fold, as compared with GnRH-2 (Primate GnRH-2 receptor [3]): about 1.5 fold
